Laboratory results from ChEMBL document CHEMBL4033617, “Stereo-controlled synthesis of functionalized tetrahydropyridines based on the cyanomethylation of 1,6-dihydropyridines and generation of anti-hepatitis C virus agents” (Bioorg Med Chem, 2017).

Tested on: Hepatitis C virus
Assay: Antiviral activity against Hepatitis C virus infected in human Huh7.5.1 cells after 72 hrs by focus formation assay
Type: functional, cell-based, Hepacivirus hominis
Conditions: Huh-7.5.1, 72 h

SMILES | IC50 [µM]
C=CC[C@]1(C(=O)c2ccccc2)C=CCN(Cc2ccccc2)[C@H]1CC#N | 15.4
N#CC[C@H]1C(C(=O)c2ccccc2)=CC=CN1Cc1ccccc1 | 10.8
